# Measurements as given in patent US12421489B2, “Biological control of plant pathogenic microorganisms” (priority 2016, dated 2025).
# Experiments:
# Assay type in all cases: in vivo
# [1] = test system: Pseudomonas syringae pv. actinidiae (Psa); assay: Field trials 2015-16: foliar sprays on ‘Hayward’ vines, Blocks B and C, Maketu; conditions: mean of Blocks B and C
# From the text: Grower standard treatment: Kocide Opti+1×Kasumin
# Two field trial sites were established during spring 2015 with the intention of running across two consecutive seasons. The two ‘Hayward’ blocks (coded Block B and C) were located in separate orchards, near Maketu, Bay of Plenty. Block C was the same orchard as the 2014-15 trial, but a different area in the blocks was used. Vines in all blocks were pergola trained with a single vine per bay. The vines generally looked healthy at the commencement of the trial, but had suffered from significant Psa symptoms 2-3 years previously, according to the grower.
# The spray treatments were applied to individual vines (eight replicates per treatment) laid out in a randomised block design. The treatments were: • 1. Nil—no Psa control products applied during the growing season • 2. Grower standard—copper-based foliar spray programme, including up to one antibiotic spray • 3. YBCA5—yeast-based foliar spray programme (2×10^7 CFU/mL)
# Spray applications in the Grower standard and YBCA5 treatments were applied according to the schedule in Table 5. Common agricultural adjuvants were added to the Grower standard (0.04% Du-Wett®) and YBCA5 (0.03% Nu-Film-17@) applications.
# The YBCA5 yeast was produced by liquid fermentation, sourced from three separate production facilities: PFR (Ruakura), AgResearch (Lincoln) and Callaghan Innovation (Lower Hutt). A concentrated yeast pellet after centrifugation was supplied to the laboratory at Ruakura and this was mixed with an inert carrier and extruded to form granules which were air dried overnight in a laminar flow hood. The number of colony forming units/g was calculated by dissolving 0.2 g samples into 20 mL phosphate buffered saline amended with 0.05% Tween 80 (PBSTw). This was serially diluted and 10-μL droplets of each dilution were transferred to Petri dishes with malt yeast extract agar amended with chloramphenicol. Petri dishes were incubated for 24 h at 25° C. and then 4-6° C. for a further 24 h, prior to counting the number of colonies. […]
# Psa disease assessments were carried out in the ‘Hayward’ blocks just prior to flowering on 11 Nov. […] Assessments were commenced after taking one step (i.e. 1 m) from the edge of the plot and a set of 25 leaves were scored. […] This was then repeated down the other side of the vine so that four sets of 25 leaves (total=100) were scored within each plot. Similarly, 100 buds/plot were scored for the severity of bud-browning, as described above.
# Data were expressed as Psa incidence (based on the proportion of leaves with Psa spotting/proportion of buds with brown sepals) and average Psa severity (mean % leaf area necrotic/mean number of brown sepals on buds). Data were log-transformed and analysed by ANOVA using Genstat (ver. 16) to determine treatment differences. […]
# [2] = test system: Monilinia fructicola; assay: Cherry inoculation assays 1 and 3: Monilinia fruit rot of ‘Sweet Valentine’ cherries, dip treatment; conditions: Assay 3, cherries, cumulative after 16 days; Nil 88%; YBCA5 not significant (P>0.05), captan P<0.001
# Method: (§1) Fruit-based screening assays were conducted in laboratories at the Plant and Food Research Ruakura Research Centre, Hamilton, New Zealand (PFR). PFR assays focused on dip treatment application of YBCA5 and fungicide controls.
# (§2) Fruit for Monilinia fructicola and Botrytis spp. inoculation assays were carried out on sweet cherries (Prunus avium ‘Sweet Valentine’) that were picked at the harvest mature stage and sourced from the PFR Clyde Research Orchard in Central Otago on 8 Jan. 2016 for fruit based assays 1 and 2. A second harvest was carried out on 13 Jan. 2016 for fruit based assays 3 and 4.
# (§3) Each cherry was then subjected to a double wash process. Wash one consisted of 10 minutes in tap water on a rotary shaker (110 rpm) followed by a five minute wash in SDW (Wash 2). […]
# A Monilinia fructicola culture (isolate code MFGQ3), which had been originally isolated from an infected peach tree located in the Hamilton region during 1998, was used for the spray inoculation assays included in this section (Ruakura based assay). […] This stock suspension was then filtered using a 70 μm cell strainer (to remove mycelial fragments), the concentration determined using a haemocytometer and then adjusted, by dilution with SDW+Tw 80 (0.05%) to a final concentration of 1×10^4 conidia/mL. […]
# [3] = test system: Botrytis spp.; assay: Cherry inoculation assays 2 and 4: Botrytis spp. fruit rot of ‘Sweet Valentine’ cherries, dip treatment; conditions: Assay 4, cherries, cumulative after 16 days; nil 67%; not significantly reduced (P>0.05)
# Method: as §1, §2, §3
# A Botrytis spp. culture (isolate code 09-2), which had been originally isolated from an infected kiwifruit located in the Bay of Plenty region during the 2000s, was used for the spray inoculation assays included in this section carried out on cherries. […] This stock suspension was then filtered using a 70 μm cell strainer (70 μm mesh) to remove mycelial fragments, the concentration determined using a haemocytometer and then adjusted, by dilution with SDW+Tw 80 (0.01% v/v) to a final concentration of 1×10^5 conidia/mL. […]
# [4] = test system: Botrytis spp.; assay: Grape inoculation assay 5: Botrytis spp. rot of wounded table grape berries; conditions: Assay 5, wounded table grapes, 9 days, mean of two Botrytis spp. isolates; nil 30%; significantly reduced (P<0.001)
# Method: Fruit assays were carried out on detached white table grape berries (‘Thompson seedless’—Assay 5), imported from California that were sourced from a local supermarket in Hamilton. Each berry was detached from the bunch with 3-4 mm of pedicel remaining and then subjected to a double wash process. Wash one consisted of 10 minutes in tap water on a rotary shaker (110 rpm) followed by a five minute wash in SDW (Wash 2). All berries were placed onto sterile black plastic grids in a sterile plastic meat tray with two sterile paper towels and were allowed to dry in a laminar flow hood. Each berry was lightly wounded with the aid of fine sandpaper, Grade P220, then dipped in the treatments for 60 seconds and again allowed to dry.
# YBCA5 granules were prepared by fermenting the yeast for 3 days in a 10 L bioreactor (Labfors) using sterile liquid media (4% molasses and 1.2 g/L urea). […]
# Botrytis spp. inoculum was prepared by growing each isolate of Botrytis spp. for 5-7 days on PDA (DIFCO, Fort Richard) medium and harvesting the conidia by washing the plate with SDW plus Tween 80 (0.01%) to make a stock suspension of inoculum. This stock suspension was then filtered using a cell strainer (70 μm mesh, Falcon) to remove mycelial fragments, the concentration determined using a haemocytometer and adjusted to the required concentration (2×10^4 conidia/mL) equivalent to 200 conidia in each 10 μL droplet. […]
Structure (SMILES),"Severity of spotting (% leaf area) ([1]; assessed Nov. 11, 2015, Nil control 0.24, LSD 0.099) [b % leaf area]","Severity of bud browning (No. sepals) ([1]; assessed Nov. 11, 2015, Nil control 1.29, LSD 0.226) [b No. sepals]","% leaves with spotting (incidence) ([1]; assessed Nov. 11, 2015, Nil control 50, LSD 8.0) [b %]","% buds with necrosis (incidence) ([1]; assessed Nov. 11, 2015, Nil control 61, LSD 9.9) [b %]",incidence of Monilinia fruit rot [2] [%],incidence of Botrytis spp. fruit rot [3] [%],incidence of Botrytis spp. fruit rot [4] [%]
"[Cu+2].[OH-].[OH-] [Kocide Opti, Copper Hydroxide]",0.07,0.80,27,45,–,–,–
O=C1C2CC=CCC2C(=O)N1SC(Cl)(Cl)Cl (stereo not shown) [captan],–,–,–,–,12,43,10
